Experimental data: PubChem BioAssay AID2060499 (Molecular Pharmacology Branch, DTP, NCI, 2025)

Test system: 777334-354-R2-J4-PDC tumor spheroids with HUVEC/MSC, viability
Experiment: Anticancer human tumor 777334-354-R2-J4-PDC patient-derived pancreatic adenocarcinoma cell line growth inhibition [GQUAD]
Conditions: for IC50: curve of first compound; for viability, T/C: stronger effect = lower value
Outline: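 Tumor cells were grown as complex spheroids with HUVEC endothelial cells and mesenchymal stem cells as stroma. G-quadruplex stabilizers were combined with targeted agents over half-log dilutions from near the clinical Cmax, or from 10 microM.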

[1] = second compound 0.0316 µM, first compound 0.0316 µM
[2] = second compound 0.0316 µM, first compound 0.1 µM
[3] = second compound 0.0316 µM, first compound 0.316 µM
[4] = second compound 0.0316 µM, first compound 1 µM
[5] = second compound 0.0316 µM, first compound 3.16 µM
[6] = second compound 0.0316 µM, first compound 10 µM
[7] = second compound 0.1 µM, first compound 0.0316 µM
[8] = second compound 0.1 µM, first compound 0.1 µM
[9] = second compound 0.1 µM, first compound 0.316 µM
[10] = second compound 0.1 µM, first compound 1 µM
[11] = second compound 0.1 µM, first compound 3.16 µM
[12] = second compound 0.1 µM, first compound 10 µM
[13] = second compound 0.316 µM, first compound 0.0316 µM
[14] = second compound 0.316 µM, first compound 0.1 µM
[15] = second compound 0.316 µM, first compound 0.316 µM
[16] = second compound 0.316 µM, first compound 1 µM
[17] = second compound 0.316 µM, first compound 3.16 µM
[18] = second compound 0.316 µM, first compound 10 µM
[19] = second compound 1 µM, first compound 0.0316 µM
[20] = second compound 1 µM, first compound 0.1 µM
[21] = second compound 1 µM, first compound 0.316 µM
[22] = second compound 1 µM, first compound 1 µM
[23] = second compound 1 µM, first compound 3.16 µM
[24] = second compound 1 µM, first compound 10 µM
[25] = second compound 3.16 µM, first compound 0.0316 µM
[26] = second compound 3.16 µM, first compound 0.1 µM
[27] = second compound 3.16 µM, first compound 0.316 µM
[28] = second compound 3.16 µM, first compound 1 µM
[29] = second compound 3.16 µM, first compound 3.16 µM
[30] = second compound 3.16 µM, first compound 10 µM
[31] = second compound 10 µM, first compound 0.0316 µM
[32] = second compound 10 µM, first compound 0.1 µM
[33] = second compound 10 µM, first compound 0.316 µM
[34] = second compound 10 µM, first compound 1 µM
[35] = second compound 10 µM, first compound 3.16 µM
[36] = second compound 10 µM, first compound 10 µM
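Also: spheroids exposed to compounds for 7 days before readout.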

C=CC(=O)N1CCN(c2nc(=O)n(-c3c(C)ccnc3C(C)C)c3nc(-c4c(O)cccc4F)c(F)cc23)C(C)C1 (stereo unspecified) + Cc1cnc(CNC(=O)c2c(=O)c3ccc(N4CCCN(C)CC4)nc3n3c2sc2ccccc23)cn1
IC50 (second compound 0.0316 µM): > 10 µM | IC50 (second compound 0.1 µM): > 10 µM | IC50 (second compound 0.316 µM): > 10 µM | IC50 (second compound 1 µM): > 10 µM | IC50 (second compound 3.16 µM): > 10 µM | IC50 (second compound 10 µM): > 10 µM | viability, T/C [1]: 106% | viability, T/C [2]: 75.7% | viability, T/C [3]: 96.2% | viability, T/C [4]: 106% | viability, T/C [5]: 110% | viability, T/C [6]: 97.2% | viability, T/C [7]: 95.3% | viability, T/C [8]: 79.4% | viability, T/C [9]: 90.2% | viability, T/C [10]: 89.9% | viability, T/C [11]: 109% | viability, T/C [12]: 81.2% | viability, T/C [13]: 81.2% | viability, T/C [14]: 91.3% | viability, T/C [15]: 87.7% | viability, T/C [16]: 104% | viability, T/C [17]: 90.7% | viability, T/C [18]: 76.3% | viability, T/C [19]: 73.7% | viability, T/C [20]: 74.1% | viability, T/C [21]: 69.9% | viability, T/C [22]: 81.4% | viability, T/C [23]: 82.9% | viability, T/C [24]: 71.5% | viability, T/C [25]: 61.8% | viability, T/C [26]: 60.8% | viability, T/C [27]: 62.5% | viability, T/C [28]: 66.8% | viability, T/C [29]: 76.9% | viability, T/C [30]: 55.3% | viability, T/C [31]: 56.6% | viability, T/C [32]: 55.3% | viability, T/C [33]: 58.6% | viability, T/C [34]: 70% | viability, T/C [35]: 64.5% | viability, T/C [36]: 49.9%

CC(C)n1c(=O)n(C)c2cnc3cc(F)c(-c4ccc(OCCCN5CCCCC5)nc4)cc3c21 + Cc1cnc(CNC(=O)c2c(=O)c3ccc(N4CCCN(C)CC4)nc3n3c2sc2ccccc23)cn1
IC50 (second compound 0.0316 µM): > 10 µM | IC50 (second compound 0.1 µM): > 10 µM | IC50 (second compound 0.316 µM): > 10 µM | IC50 (second compound 1 µM): > 10 µM | IC50 (second compound 3.16 µM): > 10 µM | IC50 (second compound 10 µM): > 10 µM | viability, T/C [1]: 85.8% | viability, T/C [2]: 84% | viability, T/C [3]: 93.9% | viability, T/C [4]: 91% | viability, T/C [5]: 103% | viability, T/C [6]: 85.6% | viability, T/C [7]: 78.3% | viability, T/C [8]: 74.3% | viability, T/C [9]: 89.1% | viability, T/C [10]: 73.6% | viability, T/C [11]: 74.2% | viability, T/C [12]: 91.4% | viability, T/C [13]: 71.4% | viability, T/C [14]: 73.2% | viability, T/C [15]: 73.8% | viability, T/C [16]: 84.7% | viability, T/C [17]: 76% | viability, T/C [18]: 74.8% | viability, T/C [19]: 73.3% | viability, T/C [20]: 71.6% | viability, T/C [21]: 66.9% | viability, T/C [22]: 72.7% | viability, T/C [23]: 85.7% | viability, T/C [24]: 73.7% | viability, T/C [25]: 57.6% | viability, T/C [26]: 62.8% | viability, T/C [27]: 66.5% | viability, T/C [28]: 62.1% | viability, T/C [29]: 78.6% | viability, T/C [30]: 63.4% | viability, T/C [31]: 57.4% | viability, T/C [32]: 52.9% | viability, T/C [33]: 61.6% | viability, T/C [34]: 62% | viability, T/C [35]: 69% | viability, T/C [36]: 64.1%

CC1COCCN1c1cc(C2(O)CC3CCC(C2)O3)c2cnn(-c3ccn[nH]3)c2n1 (stereo unspecified) + Cc1cnc(CNC(=O)c2c(=O)c3ccc(N4CCCN(C)CC4)nc3n3c2sc2ccccc23)cn1
IC50 (second compound 0.0316 µM): 0.128 µM | IC50 (second compound 0.1 µM): 0.144 µM | IC50 (second compound 0.316 µM): 0.158 µM | IC50 (second compound 1 µM): 0.13 µM | IC50 (second compound 3.16 µM): < 0.0316 µM | IC50 (second compound 10 µM): < 0.0316 µM | viability, T/C [1]: 62% | viability, T/C [2]: 46.6% | viability, T/C [3]: 45.6% | viability, T/C [4]: 37.3% | viability, T/C [5]: 32.6% | viability, T/C [6]: 21.5% | viability, T/C [7]: 65.9% | viability, T/C [8]: 46.5% | viability, T/C [9]: 46.4% | viability, T/C [10]: 34.8% | viability, T/C [11]: 31.9% | viability, T/C [12]: 18.4% | viability, T/C [13]: 54.1% | viability, T/C [14]: 55% | viability, T/C [15]: 46% | viability, T/C [16]: 37.1% | viability, T/C [17]: 30.6% | viability, T/C [18]: 16.5% | viability, T/C [19]: 59.7% | viability, T/C [20]: 46.1% | viability, T/C [21]: 45.6% | viability, T/C [22]: 39.7% | viability, T/C [23]: 26.4% | viability, T/C [24]: 15% | viability, T/C [25]: 40.8% | viability, T/C [26]: 46.1% | viability, T/C [27]: 46.3% | viability, T/C [28]: 34.2% | viability, T/C [29]: 21.4% | viability, T/C [30]: 14.9% | viability, T/C [31]: 46.8% | viability, T/C [32]: 42.8% | viability, T/C [33]: 39% | viability, T/C [34]: 29.6% | viability, T/C [35]: 18.7% | viability, T/C [36]: 11.2%
